The test system of test [1] is experimental allergic encephalomyelitis (EAE) model. The test can be described thus: Experimental allergic encephalomyelitis (EAE) model, EAE scores. In kind it is in vivo, Male C57BL/6 mice. The conditions noted are these: MOG peptide-immunized mice; oral, 30 mg/kg in 0.5% MC, 10 ml/kg/administration, twice a day from post-immunization day 7; FIG. 1 and 2.
The target of test [2] is T1, Porcine kidney-derived DPP-IV (Sus scrofa, UniProt P22411).
T1 construct: Porcine kidney-derived DPP-IV was dissolved in a reaction buffer; from tissue; host or cells: porcine kidney
T1 sequence (P22411 whole entry): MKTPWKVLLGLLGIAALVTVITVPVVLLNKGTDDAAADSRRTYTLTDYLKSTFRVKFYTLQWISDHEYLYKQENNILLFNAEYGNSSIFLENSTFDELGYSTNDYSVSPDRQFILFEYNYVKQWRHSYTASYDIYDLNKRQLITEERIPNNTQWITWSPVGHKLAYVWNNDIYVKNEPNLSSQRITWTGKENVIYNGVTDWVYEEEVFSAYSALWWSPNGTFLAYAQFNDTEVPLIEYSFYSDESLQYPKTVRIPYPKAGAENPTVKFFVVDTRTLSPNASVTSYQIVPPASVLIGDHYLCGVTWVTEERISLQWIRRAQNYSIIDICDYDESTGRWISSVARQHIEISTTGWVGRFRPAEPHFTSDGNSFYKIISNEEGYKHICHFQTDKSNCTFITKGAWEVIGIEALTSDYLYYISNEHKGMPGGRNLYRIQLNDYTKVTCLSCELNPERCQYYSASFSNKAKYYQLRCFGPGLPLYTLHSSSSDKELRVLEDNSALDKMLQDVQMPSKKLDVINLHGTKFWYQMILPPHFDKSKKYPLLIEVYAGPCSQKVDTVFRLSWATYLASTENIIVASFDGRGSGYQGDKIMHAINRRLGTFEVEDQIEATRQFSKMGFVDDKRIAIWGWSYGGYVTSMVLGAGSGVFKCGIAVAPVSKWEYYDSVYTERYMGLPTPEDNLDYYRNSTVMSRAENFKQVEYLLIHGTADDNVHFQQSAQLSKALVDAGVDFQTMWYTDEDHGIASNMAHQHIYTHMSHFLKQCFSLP
As to the kind of experiment: DPPIV-inhibiting activity assay. The format is biochemical. The conditions noted are these: porcine kidney DPP-IV 10 mU/ml, Gly-Pro-p-nitroanilide 0.33 mM, 20 minutes, absorbance at 405 nm. The method, then: DPPIV-Inhibiting Activity Assay
Porcine kidney-derived DPP-IV was dissolved in a reaction buffer (50 mM Tris-HCl (pH 7.4)/0.1% BSA) at a concentration of 10 mU/ml. After 110 μl of this solution had been combined with 15 μl of an agent, the mixture was incubated at room temperature for 20 minutes. 25 μl of 2 mM Gly-Pro-p-nitroanilide was added (to a final concentration of 0.33 mM) to the solution to initiate the enzyme reaction. The reaction time was 20 minutes. 25 μl of IN phosphoric acid solution was added to the reaction solution to quench the reaction.

Consider `CC#CCn1c(N2CCNCC2)nc2c1c(=O)n(C)c(=O)n2C` [Compound 1X, 7-(2-butynyl)-1,3-dimethyl-8-(piperazin-1-yl)-3,7-dihydropurine-2,6-dione], for which, in test [1], the “effect on development of EAE symptoms compared to control group (MC solution)” value was “definite suppressing effects”. Still for that read-out and setting: to `CC#CCn1c(N2CCCC(N)C2)nc2cnn(C)c(=O)c21.O=C(O)C(F)(F)F` (stereo not shown) [Example 120, 2-(3-Aminopiperidin-1-yl)-3-(2-butynyl)-5-methyl-3,5-dihydroimidazo[4,5-d]pyridazin-4-one trifluoroacetate] belongs “definite suppressing effects”; to `CC#CCn1c(N2CCNCC2)nc2nc(Oc3ccccc3C(N)=O)n(C)c(=O)c21` [Example 122, 2-[7-(2-Butynyl)-1-methyl-6-oxo-8-(piperazin-1-yl)-6,7-dihydro-1H-purin-2-yloxy]benzamide], “definite suppressing effects”.

In turn, “Methyl 2-[7-(2-butynyl)-1-methyl-6-oxo-8-(piperazin-1-yl)-6,7-dihydro-1H-purin-2-yloxy]phenylacetate trifluoroacetate [Example 4]” had a half-inhibitory concentration (IC50) in test [2] of 211 nM.

These data come from US20070219178A1, “PREVENTIVE OR THERAPEUTIC AGENTS FOR MULTIPLE SCLEROSIS” (Eisai Co., Ltd., priority 2003, published 2007).
